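Where inhibition never reached the appropriate level, the endpoint shown equals the highest concentration tested. Otherwise, values were interpolated linearly from a five-concentration, 48-hour dose response in 96-well plates. Definition used: TGI = concentration required for complete inhibition of growth.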
What was measured:
Assay in all cases: NCI tumour cell line growth inhibition, 48 h
M14 melanoma = system: M14 melanoma
OVCAR-3 ovarian = system: OVCAR-3 ovarian
DU-145 prostate = system: DU-145 prostate
PC-3 prostate = system: PC-3 prostate
SK-MEL-5 melanoma = system: SK-MEL-5 melanoma
OVCAR-5 ovarian = system: OVCAR-5 ovarian
KM12 colon = system: KM12 colon
U251 CNS = system: U251 CNS
A549 NSCLC = system: A549 NSCLC
SK-MEL-28 melanoma = system: SK-MEL-28 melanoma
NCI/ADR-RES ovarian = system: NCI/ADR-RES ovarian
HS 578T breast = system: HS 578T breast
ACHN renal = system: ACHN renal
SF-539 CNS = system: SF-539 CNS
NCI-H23 lung = system: NCI-H23 lung
HCC-2998 colon = system: HCC-2998 colon
OVCAR-4 ovarian = system: OVCAR-4 ovarian
SW-620 colon = system: SW-620 colon
UO-31 renal = system: UO-31 renal
BT-549 breast = system: BT-549 breast

SMILES	TGI (M14 melanoma)	TGI (OVCAR-3 ovarian)	TGI (DU-145 prostate)	TGI (PC-3 prostate)	TGI (SK-MEL-5 melanoma)	TGI (OVCAR-5 ovarian)	TGI (KM12 colon)	TGI (U251 CNS)	TGI (A549 NSCLC)	TGI (SK-MEL-28 melanoma)	TGI (NCI/ADR-RES ovarian)	TGI (HS 578T breast)	TGI (ACHN renal)	TGI (SF-539 CNS)	TGI (NCI-H23 lung)	TGI (HCC-2998 colon)	TGI (OVCAR-4 ovarian)	TGI (SW-620 colon)	TGI (UO-31 renal)	TGI (BT-549 breast)
O=C1/C(=c2\s/c(=C\c3ccccc3)c(=O)n2-c2ccccc2)SC(=S)N1c1ccccc1	> 100 µM	88.8 µM	> 100 µM	> 100 µM	> 100 µM	> 100 µM	> 100 µM	81.1 µM	> 100 µM	> 100 µM	96.8 µM	> 100 µM	76.2 µM	55.6 µM	> 100 µM	> 100 µM	> 100 µM	> 100 µM		
NCCCOc1ccc([N+](=O)[O-])cc1Cl	> 100 µM	> 100 µM			> 100 µM	> 100 µM	> 100 µM	> 100 µM	> 100 µM	> 100 µM			> 100 µM	> 100 µM	> 100 µM	> 100 µM	> 100 µM	> 100 µM	> 100 µM	
[N-]=[N+]=NC(CCl)c1cn([C@H]2C[C@H](O)[C@@H](CO)O2)c(=O)[nH]c1=O (stereo not given in full)	> 100 µM	> 100 µM			> 100 µM	> 100 µM	> 100 µM	> 100 µM	> 100 µM	> 100 µM			> 100 µM	> 100 µM	> 100 µM	> 100 µM		> 100 µM	> 100 µM	
O=c1ccn2n1Cc1ccccc1C2	> 100 µM	> 100 µM	> 100 µM	> 100 µM	> 100 µM	> 100 µM	> 100 µM	> 100 µM	> 100 µM	> 100 µM	> 100 µM	> 100 µM	> 100 µM	> 100 µM	> 100 µM	> 100 µM	> 100 µM	> 100 µM	> 100 µM	
CCCCCC(C/C=N/N(C)C)C(O)(C(F)(F)F)C(F)(F)F (stereo not given)	> 100 µM	66.1 µM	> 100 µM	> 100 µM	30.7 µM	> 100 µM	81.6 µM	> 100 µM	> 100 µM	> 100 µM	> 100 µM	91.8 µM	52.7 µM	82.7 µM	> 100 µM	> 100 µM	> 100 µM	> 100 µM	> 100 µM	
CN1C2=C(CC3=C1CC(C)(C)CC3=O)C(=O)CC(C)(C)C2	> 100 µM	> 100 µM		> 100 µM	> 100 µM	> 100 µM	> 100 µM	> 100 µM	> 100 µM	> 100 µM	> 100 µM	> 100 µM	> 100 µM	> 100 µM	> 100 µM	> 100 µM	> 100 µM	> 100 µM	> 100 µM	> 100 µM
O=S1(=O)OCCOS(=O)(=O)C1S(=O)(=O)c1ccc2ccccc2c1	> 100 µM	> 100 µM	> 100 µM	> 100 µM	> 100 µM	> 100 µM	> 100 µM	> 100 µM	> 100 µM	> 100 µM	> 100 µM		> 100 µM		> 100 µM	> 100 µM	> 100 µM	> 100 µM	> 100 µM	> 100 µM
O=C(O)c1n[nH][nH]c1=S	> 100 µM	> 100 µM	> 100 µM	> 100 µM	> 100 µM	> 100 µM	> 100 µM	> 100 µM	> 100 µM	> 100 µM	> 100 µM	> 100 µM	> 100 µM	> 100 µM	> 100 µM	> 100 µM	> 100 µM	> 100 µM	> 100 µM	
CCc1cc2c(c3c1CCC3=O)CC1(Cc3ccc(C)cc3C1)C2 (stereo not given)	> 100 µM	> 100 µM		91.7 µM	76.8 µM	> 100 µM	> 100 µM	> 100 µM	40.8 µM		> 100 µM	86.9 µM	> 100 µM	> 100 µM	> 100 µM	> 100 µM	98 µM			
O=c1cc(-c2ccccc2)c2ccccc2[nH]1	> 100 µM				93.2 µM	> 100 µM	> 100 µM	> 100 µM	> 100 µM	> 100 µM			> 100 µM	> 100 µM	> 100 µM		> 100 µM	> 100 µM	55.9 µM	
OC1c2ccccc2CC12Cc1ccccc1C2 (stereo not given)	> 100 µM	> 100 µM	> 100 µM	> 100 µM	49.6 µM	> 100 µM	> 100 µM	> 100 µM	> 100 µM	> 100 µM	> 100 µM	> 100 µM	> 100 µM	> 100 µM	> 100 µM	> 100 µM	> 100 µM	> 100 µM	> 100 µM	
Cc1ccc(NCC(=O)N2CC(=O)Nc3ccccc32)c(C)c1	> 100 µM	> 100 µM			> 100 µM	> 100 µM	> 100 µM	> 100 µM	> 100 µM	> 100 µM			> 100 µM	> 100 µM	> 100 µM	> 100 µM	> 100 µM	> 100 µM	> 100 µM	
Cc1ccc(Cc2n[nH]c(=O)n2Nc2ccccc2)cc1		> 100 µM	> 100 µM		> 100 µM	> 100 µM	> 100 µM	> 100 µM	> 100 µM	> 100 µM	> 100 µM	> 100 µM	> 100 µM	> 100 µM	> 100 µM	> 100 µM	> 100 µM	> 100 µM	> 100 µM	> 100 µM
CN1CCN(C(=S)N(C(=O)c2ccc(Cl)cc2)c2ccccc2)CC1	> 100 µM	> 100 µM	> 100 µM		> 100 µM	> 100 µM	> 100 µM	> 100 µM	> 100 µM	> 100 µM		> 100 µM	> 100 µM		> 100 µM	> 100 µM	> 100 µM	> 100 µM	> 100 µM	> 100 µM
CC(C)Oc1c(O)c2c3c(oc(=O)n3C=CC2c2ccccc2)c1OC(C)C (stereo not given)	41.4 µM	80.5 µM	> 100 µM	57.1 µM	> 100 µM	> 100 µM	89.6 µM	45.2 µM	92.1 µM	54.5 µM	> 100 µM			43.1 µM	52.2 µM	35.3 µM	> 100 µM	82.8 µM	37.2 µM	
Cc1cc(-c2cccc3ccccc23)c(C#N)c(=S)n1C1OC(CO)C(O)C(O)C1O (stereo not given)	> 100 µM	> 100 µM		> 100 µM	> 100 µM	> 100 µM	> 100 µM		> 100 µM		> 100 µM	> 100 µM	> 100 µM	> 100 µM	> 100 µM	> 100 µM	> 100 µM	> 100 µM		
Cc1ccc(S(=O)(=O)N2CCC(=O)c3cc(Br)ccc32)cc1	> 67 µM	61 µM	> 100 µM	75.4 µM	21.7 µM	> 100 µM	> 26.1 µM	> 35 µM	32.1 µM	> 100 µM	58.9 µM		> 100 µM	25.3 µM	> 93.9 µM	> 54.1 µM	> 73.9 µM	> 100 µM	> 100 µM	> 88.9 µM
Cc1c2ccncc2c(C)c2c1[nH]c1ccc(OC(C)C)cc12	2.96 µM	2.98 µM			3.2 µM	2.87 µM	2.86 µM	2.94 µM	3.1 µM	3.21 µM			2.56 µM	3.36 µM	2.93 µM	3.48 µM	3.14 µM	1.89 µM	2.89 µM	
CN(C)c1ccc(/C=C/C(=O)CC(=O)/C=C/c2ccc(N(C)C)cc2)cc1	> 100 µM	> 100 µM	> 100 µM	> 100 µM	> 100 µM	> 100 µM	> 100 µM	> 100 µM	> 100 µM	> 100 µM	> 100 µM	> 100 µM	> 100 µM	> 100 µM		> 100 µM	> 100 µM	> 100 µM	> 100 µM	
O=c1[nH]nc(-c2ccccc2)n1Nc1ccccc1	> 100 µM	> 100 µM	> 100 µM		> 100 µM	> 100 µM	> 100 µM	> 100 µM	> 100 µM	> 100 µM	> 100 µM	> 100 µM	> 100 µM	> 100 µM	> 100 µM	> 100 µM	> 100 µM	> 100 µM	> 100 µM	
NC(=O)Nc1ccc(S(=O)(=O)Nc2ccc(S(N)(=O)=O)cc2)cc1	> 100 µM	> 100 µM	> 100 µM	> 100 µM	> 100 µM	> 100 µM	> 100 µM	> 100 µM	> 100 µM	> 100 µM	> 100 µM		> 100 µM		> 100 µM		> 100 µM	> 100 µM	> 100 µM	> 100 µM
N=C(N)C1CN(CCCCCCCCCCN2CC(C(=N)N)C(=O)NC2=O)C(=O)NC1=O (stereo not given)	> 10 µM	> 10 µM		> 10 µM	> 10 µM	> 10 µM	> 10 µM	> 10 µM	> 10 µM		> 10 µM	> 10 µM	> 10 µM	> 10 µM	> 10 µM	> 10 µM	> 10 µM	> 10 µM		> 10 µM
COc1c2cc(C(C)(C)C)cc1Cc1cccc(c1OCc1cccc([N+](=O)[O-])c1)Cc1cc(C(C)(C)C)cc(c1OC)Cc1cccc(c1OCc1cccc([N+](=O)[O-])c1)Cc1cc(C(C)(C)C)cc(c1OC)Cc1cccc(c1OCc1cccc([N+](=O)[O-])c1)C2	> 50 µM	> 50 µM	> 50 µM	> 50 µM	> 50 µM	> 50 µM	> 50 µM	> 50 µM	> 50 µM	> 50 µM	> 50 µM		> 50 µM	> 50 µM	> 50 µM	> 50 µM		> 50 µM	> 50 µM	> 50 µM
CC1=NN(c2cccc(Cl)c2)C(=N/c2nc3ccccc3s2)/C1=C\c1ccc(Cl)cc1	52.2 µM	52.5 µM	> 100 µM	31.3 µM	32 µM	40.4 µM		28.7 µM		45.2 µM	50.7 µM	60 µM	58.9 µM	36.4 µM	39.3 µM	31 µM		42.3 µM	46.3 µM	
CC(C)=CC1C[C@H](C2CC=C3C2(C)CCC2[C@@]3(C)C(=O)CC3[C@]2(C)C=CC(=O)[C@]3(C)CO)CO1 (stereo not given in full)	12.1 µM	13.2 µM			25 µM	37.8 µM	19.9 µM	21.7 µM	52.4 µM	19 µM			30.7 µM	11.9 µM	19.1 µM	30 µM	41.3 µM	> 31.7 µM	33.1 µM	
C=C(CCOC)CCC1CCCCC(=C)[C@H]1OC(C)=O (stereo not given in full)	> 100 µM	> 100 µM	> 100 µM	> 100 µM	> 100 µM	> 100 µM	> 100 µM	> 100 µM	> 100 µM	> 100 µM	> 100 µM	> 100 µM	> 100 µM	> 100 µM	> 100 µM		> 100 µM	> 100 µM	> 100 µM	
COC(=O)/C=C\COCC1C2CCC(=O)C21 (stereo not given)	> 25 µM	> 25 µM	> 25 µM	> 25 µM	> 25 µM	> 25 µM	> 25 µM	> 25 µM	> 25 µM	> 25 µM	> 25 µM		> 25 µM	19.4 µM	> 25 µM	> 25 µM	> 25 µM	> 25 µM	> 25 µM	> 25 µM

— PubChem BioAssay (NCI)
